The target of experiment [1] is T1, Ovine COX-1 (Ovis aries, UniProt P05979).
T1 construct: purchased Sigma-Aldrich
T1 sequence (P05979 25-600): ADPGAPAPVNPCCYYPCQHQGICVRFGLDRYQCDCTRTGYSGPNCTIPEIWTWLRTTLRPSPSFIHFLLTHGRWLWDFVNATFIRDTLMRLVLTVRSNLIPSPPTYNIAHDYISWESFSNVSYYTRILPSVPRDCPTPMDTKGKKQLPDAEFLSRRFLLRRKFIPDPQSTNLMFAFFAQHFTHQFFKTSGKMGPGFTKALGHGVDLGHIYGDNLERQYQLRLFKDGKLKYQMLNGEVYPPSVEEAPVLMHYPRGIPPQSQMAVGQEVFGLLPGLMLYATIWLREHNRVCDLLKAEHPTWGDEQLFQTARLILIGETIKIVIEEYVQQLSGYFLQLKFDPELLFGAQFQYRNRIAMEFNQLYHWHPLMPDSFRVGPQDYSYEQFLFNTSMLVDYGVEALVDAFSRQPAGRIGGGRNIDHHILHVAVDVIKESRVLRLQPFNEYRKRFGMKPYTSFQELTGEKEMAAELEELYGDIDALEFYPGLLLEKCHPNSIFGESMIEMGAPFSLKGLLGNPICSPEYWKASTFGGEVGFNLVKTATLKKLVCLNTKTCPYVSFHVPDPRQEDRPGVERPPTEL
The experiment can be described thus: COX-1 in vitro enzymatic assay (PGE2 ELISA). Type of experiment: biochemical. The settings on record: for inhibition at 20 µM: compound at 20 μM. The method, then: (§1) The inhibitory activity of compounds was tested using in vitro enzymatic assay. Ovine COX-1 (1 unit/reaction) or human recombinant COX-2 (0.5 unit/reaction; both enzymes Sigma-Aldrich, USA) was added to 180 µL of 100 mM Tris buffer (pH 8.0), containing 5 μM porcine hematin, 18 mM L-epinephrine, and 50 μM Na2EDTA. Ten µL of tested compound dissolved in DMSO or pure DMSO (as a blank) were added to the reaction.
(§2) Sigma-Aldrich, USA) was used as a reference inhibitor. After 5 min incubation at room temperature, reaction was initiated by 5 µL of arachidonic acid (10 µM) and incubated 20 min in 37°C. Then the reaction was stopped by 20 µL of formic acid (10% v/v). The concentration of prostaglandin E2 (PGE2) was measured with Prostaglandin E2 ELISA kit (Enzo Life Sciences, USA). Reaction mixture was diluted 1:15 in assay buffer (provided in the kit) and incubated according to the manufacturer instructions.
(§3) The concentration of PGE2 produced during the reaction was estimated according to absorbance […]
(§4) inhibitory activity was calculated as percentual inhibition of PGE2 production compared to blank. At first, the inhibitory activity of compounds was tested at 20 µM to see if there is any activity. IC50 […]
(§5) of COX-2. The level of percentual inhibition was chosen based on the percentual inhibition caused by […]
(§6) All the experiments were carried out in duplicates and repeated at least two times. To test whether increasing substrate concentration influences the activity of […]
(§7) reference compound. The inhibitory activity was calculated as percentual inhibition of PGE2 production compared to blank with respective concentration of AA. […]

The target of experiment [2] is T2, human recombinant COX-2 (Homo sapiens, UniProt P35354).
T2 construct: purchased Sigma-Aldrich
T2 sequence (P35354 18-604): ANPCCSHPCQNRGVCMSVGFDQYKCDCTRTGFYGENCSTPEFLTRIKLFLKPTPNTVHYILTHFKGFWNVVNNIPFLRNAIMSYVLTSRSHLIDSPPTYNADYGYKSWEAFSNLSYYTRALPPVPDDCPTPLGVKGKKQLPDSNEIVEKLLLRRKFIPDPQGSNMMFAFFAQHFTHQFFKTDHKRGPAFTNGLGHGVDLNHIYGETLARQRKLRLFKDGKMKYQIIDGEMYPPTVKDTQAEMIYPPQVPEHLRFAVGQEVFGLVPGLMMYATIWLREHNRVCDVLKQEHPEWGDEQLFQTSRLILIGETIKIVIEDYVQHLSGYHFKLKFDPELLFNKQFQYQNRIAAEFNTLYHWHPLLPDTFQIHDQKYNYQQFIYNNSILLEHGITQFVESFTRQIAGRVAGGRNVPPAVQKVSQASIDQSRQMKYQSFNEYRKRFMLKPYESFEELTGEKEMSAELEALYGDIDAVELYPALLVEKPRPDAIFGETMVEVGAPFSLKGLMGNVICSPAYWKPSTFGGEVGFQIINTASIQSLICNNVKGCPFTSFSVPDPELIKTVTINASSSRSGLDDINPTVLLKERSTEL
Nature of the experiment: COX-2 in vitro enzymatic assay (PGE2 ELISA). Type of experiment: biochemical. The settings on record: for inhibition at 20 µM: compound at 20 μM. The method, then: as §1, §2, §3, §4, §5, §6, §7

In the case of `COc1ccc(-c2ccc3c(NCc4ccc(F)c(F)c4)nc(N4CCCC4)nc3c2)cc1` [7l], the inhibition at 20 µM in experiment [1] was -23.6%; in experiment [2] it was 8.82%.

In the case of `COc1ccc(-c2ccc3c(NCc4ccc(F)c(F)c4)nc(N4CCNCC4)nc3c2)cc1` [7m], the inhibition at 20 µM in experiment [1] was -6.25%; in experiment [2] it was 11.7%.

In the case of `CCN(CC)c1nc(NCc2ccc(F)c(F)c2)c2ccc(-c3ccc(OC)cc3)cc2n1` [7n], the inhibition at 20 µM stood at 18% in experiment [1] and 14.6% in experiment [2].

On to `Fc1ccc(CNc2nc(N3CCOCC3)nc3cc(-c4cccs4)ccc23)cc1F` [7o], for which the inhibition at 20 µM in experiment [1] turned out to be 66%. In addition, in experiment [2], the IC50 was above 50 µM and the inhibition at 20 µM is -3.62%. Further, the “inhibition of COX-2 (in words)” value in experiment [2] (at 50 μM) is reported as “did not inhibit”.

On to `Cc1ccc(Nc2nc(/C=C/c3ccccc3)nc3cc(Br)ccc23)cc1` [8a], for which the inhibition at 20 µM in experiment [1] turned out to be 82.2%. Also, in experiment [2], the concentration for half-maximal inhibition (IC50) was above 50 µM and the inhibition at 20 µM stood at 27.5%.

Turning to `Fc1ccc(CNc2nc(/C=C/c3ccccc3)nc3cc(Br)ccc23)cc1F` [8b], in experiment [1], inhibition was half-maximal at 1.58 ± 0.89 µM (IC50) and the inhibition at 20 µM is 84.7%. The “selectivity index (COX-2/COX-1)” value in experiment [1] (ratio of IC50 COX-2 / IC50 COX-1) is given as “COX-1-selective”. In experiment [2], the IC50 is above 50 µM and the inhibition at 20 µM is 21.5%.

The inhibition is the drop in the measured response relative to a control, in per cent. One may read the IC50 as the point on the concentration scale where inhibition reaches its midpoint.

The record behind these values is article PMC8040043, “Synthesis, Inhibitory Activity, and In Silico Modeling of Selective COX-1 Inhibitors with a Quinazoline Core” (ACS Medicinal Chemistry Letters, 2021).
